Experimental data from ChEMBL document CHEMBL5331084, “Structure-based lead optimization of peptide-based vinyl methyl ketones as SARS-CoV-2 main protease inhibitors” (Eur J Med Chem, 2023).
Activity calls are given as the source filed them. The calls are words filed in the database; no cut-off is given here.

Tests used:
[1] = molecular target: Replicase polyprotein 1ab (Severe acute respiratory syndrome coronavirus 2, UniProt P0DTD1); assay: Inhibition of SARS-CoV-2 MPro using Dabcyl-KTSAVLQSGFRKME-Edans as substrate assessed as inhibition constant measured for 10 mins by FRET assay
[2] = molecular target: Cathepsin B (Homo sapiens, UniProt P07858); assay: Inhibition of human Cathepsin B using Cbz-Phe-Arg-7-amino-4-methylcoumarin as substrate assessed as inhibition constant measured for 10 mins by fluorescence assay
[3] = molecular target: Replicase polyprotein 1ab (Severe acute respiratory syndrome coronavirus 2) (UniProt P0DTD1); assay: Inhibition of SARS-CoV-2 PLpro using Z-RLRGG-AMC acetate as substrate at 100 uM measured for 10 mins by fluorescence assay
[4] = molecular target: T1, Procathepsin L (Homo sapiens, UniProt P07711); assay: Inhibition of human Cathepsin L using Cbz-Phe-Arg-AMC as substrate assessed as inhibition constant measured for 10 mins by fluorescence assay
Target sequence in this assay (P07711 whole entry): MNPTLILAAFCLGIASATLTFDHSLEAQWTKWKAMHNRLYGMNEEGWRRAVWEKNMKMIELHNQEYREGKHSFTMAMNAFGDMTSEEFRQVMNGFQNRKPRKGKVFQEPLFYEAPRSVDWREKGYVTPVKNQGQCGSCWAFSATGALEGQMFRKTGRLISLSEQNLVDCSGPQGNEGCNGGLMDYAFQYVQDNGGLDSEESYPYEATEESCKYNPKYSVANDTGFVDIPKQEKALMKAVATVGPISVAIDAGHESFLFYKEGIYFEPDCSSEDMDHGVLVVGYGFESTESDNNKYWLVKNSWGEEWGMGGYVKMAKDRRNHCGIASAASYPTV

[5] = molecular target: Replicase polyprotein 1ab (Severe acute respiratory syndrome coronavirus 2) (UniProt P0DTD1); assay: Covalent irreversible inhibition of SARS-CoV-2 MPro using Dabcyl-KTSAVLQSGFRKME-Edans as substrate assessed as reduction in enzyme recovery at 10 fold IC50 preincubated for 60 mins followed by dialysis for 25 hrs further incubated with substrate and measured over 10 mins by fluorescence based assay; details: time 1570.0 min
[6] = molecular target: T1, Procathepsin L; assay: Covalent irreversible inhibition of human Cathepsin L using Cbz-Phe-Arg-AMC as substrate assessed as reduction in enzyme recovery at 5 fold IC50 preincubated for 60 mins followed by dilution to 1 fold IC50 and substrate addition by fluorescence based assay
Target sequence in this assay (P07711 114-333 limits assumed): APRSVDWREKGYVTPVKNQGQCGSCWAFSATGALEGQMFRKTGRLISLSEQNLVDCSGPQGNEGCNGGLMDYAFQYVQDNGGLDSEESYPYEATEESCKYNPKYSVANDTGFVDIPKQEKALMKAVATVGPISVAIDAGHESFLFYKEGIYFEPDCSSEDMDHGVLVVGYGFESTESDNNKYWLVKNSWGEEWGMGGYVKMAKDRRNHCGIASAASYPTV

[7] = molecular target: Genome polyprotein (dengue virus type 2) (UniProt P29990); assay: Inhibition of Dengue virus NS2B-NS3 protease Boc-GRR-AMC as substrate at 100 uM measured for 10 mins by fluorescence assay
[8] = molecular target: Replicase polyprotein 1ab (Severe acute respiratory syndrome coronavirus 2) (UniProt P0DTD1); assay: Covalent irreversible inhibition of SARS-CoV-2 MPro using Dabcyl-KTSAVLQSGFRKME-Edans as substrate assessed as reduction in enzyme recovery at 5 fold IC50 preincubated for 60 mins followed by dilution to 1 fold IC50 and substrate addition by fluorescence based assay
[9] = test system: Huh-7; format: toxicity, cell-based; details: human, huh-7, 24 h

Row | Compound | Ki [1] | Ki [2] | inhibition [3] | Ki [4] | inhibition [5] | inhibition [6] | inhibition [7] | inhibition [8] | CC50 [9]
1 | CC(=O)/C=C/[C@H](C[C@@H]1CCNC1=O)NC(=O)[C@H](CC(C)(C)C)NC(=O)OCc1ccccc1 | 0.416 µM | – | – | – | – | – | – | – | –
2 | CC(=O)/C=C/[C@H](C[C@@H]1CCNC1=O)NC(=O)[C@H](CC1CCCCC1)NC(=O)OCc1ccccc1 | 0.184 µM | 14.4 µM | inactive | 0.252 µM | Active | Active | inactive | Active | 14.5 µM
3 | CC(=O)/C=C/[C@H](C[C@@H]1CCNC1=O)NC(=O)[C@H](CC(C)C)NC(=O)OCc1ccccc1 | 0.386 µM | – | – | – | – | – | – | – | –
4 | CCCC[C@H](NC(=O)OCc1ccccc1)C(=O)N[C@H](/C=C/C(C)=O)C[C@@H]1CCNC1=O | 0.26 µM | 11.1 µM | inactive | 1.92 µM | – | Active | inactive | Active | 60.9 µM
5 | CC(=O)/C=C/[C@H](C[C@@H]1CCNC1=O)NC(=O)[C@H](CC1CC1)NC(=O)OCc1ccccc1 | 0.252 µM | 7.88 µM | inactive | 3.38 µM | Active | Active | inactive | Active | 100 µM
6 | CCC[C@H](NC(=O)OCc1ccccc1)C(=O)N[C@H](/C=C/C(C)=O)C[C@@H]1CCNC1=O | 1.77 µM | – | – | – | – | – | – | – | –
